Common to all, as to assay type: functional
The test system of assay [1] is Schistosoma mansoni. In words: MMV: Motility assay. Percent change (relative to DMSO controls) @ 5 uM of movement of 4-5 Schistosoma mansoni adult males after 72 h as measured by the Consensus Voting Luminance Difference algorithm available on WormAssay (PMID:22303493). Occasional incongruence ocurrs between the motility scores and the visually adjudicated 'toxicity scores'. In these cases the 'toxicity score' should be prioritized. Only those Malaria box 'Drug-like' cpds yielding the most severe phenotypes vs. somules were tested. Caffrey group UCSF.

Assay [2] has as its system Schistosoma mansoni. In words: MMV: Motility assay. Percent change (relative to DMSO controls) @ 5 uM of movement of 4-5 Schistosoma mansoni adult males after 24 h as measured by the Consensus Voting Luminance Difference algorithm available on WormAssay (PMID:22303493). Occasional incongruence ocurrs between the motility scores and the visually adjudicated 'toxicity scores'. In these cases the 'toxicity score' should be prioritized. Only those Malaria box 'Drug-like' cpds yielding the most severe phenotypes vs. somules were tested. Caffrey group UCSF.

For assay [3], the system named is Schistosoma mansoni. In words: MMV: Toxicity @ 5 uM to 4-5 Schistosoma mansoni adult males after 48 h on a scale of 0 (none) - 4 (most). Includes short descriptors of effects as judged visually (PMID:19597541). Only those Malaria box 'drug-like' cpds yielding the most severe phenotypes vs. somules were tested. Caffrey group UCSF.
In assay [4] the test system is Schistosoma mansoni. In words: MMV: Toxicity @ 5 uM to 4-5 Schistosoma mansoni adult males after 72 h on a scale of 0 (none) - 4 (most). Includes short descriptors of effects as judged visually (PMID:19597541). Only those Malaria box 'drug-like' cpds yielding the most severe phenotypes vs. somules were tested. Caffrey group UCSF.
In assay [5] the test system is Schistosoma mansoni. In words: MMV: Motility assay. Percent change (relative to DMSO controls) @ 5 uM of movement of 4-5 Schistosoma mansoni adult males after 48 h as measured by the Consensus Voting Luminance Difference algorithm available on WormAssay (PMID:22303493). Occasional incongruence ocurrs between the motility scores and the visually adjudicated 'toxicity scores'. In these cases the 'toxicity score' should be prioritized. Only those Malaria box 'Drug-like' cpds yielding the most severe phenotypes vs. somules were tested. Caffrey group UCSF.

For assay [6], the system named is Schistosoma mansoni. On the set-up: scale not given here.
For assay [7], the system named is Schistosoma mansoni. On the set-up: scale not given here. The source holds these as a separate data set.
Assay [8] has as its system Schistosoma mansoni. Further details: scale not given here. This is another data set of the same source.
In assay [9] the test system is Schistosoma mansoni. In words: MMV: Toxicity @ 5 uM to 4-5 Schistosoma mansoni adult males after 24 h on a scale of 0 (none) - 4 (most). Includes short descriptors of effects as judged visually (PMID:19597541). Only those Malaria box 'drug-like' cpds yielding the most severe phenotypes vs. somules were tested. Caffrey group UCSF.

Turning to `CC(C)=CCN1CCC(C(=O)Nc2ccc(-c3nc4ccccc4[nH]3)cc2)CC1`, the Motility in the assay on Schistosoma mansoni [1] is given as 119; with Schistosoma mansoni [2] it was 139.1; in the assay with Schistosoma mansoni [5], 93.7. For the same compound, the Toxicity with Schistosoma mansoni [3] was 0; in the assay with Schistosoma mansoni [4], 0; in the assay on Schistosoma mansoni [6], 1; in the assay on Schistosoma mansoni [7] it was 1; in the assay on Schistosoma mansoni [8], 1; in the assay on Schistosoma mansoni [9] it was 0.
`Cc1cc(C)c2nc(N3CCC(C(=O)NCCCN4CCC(N5CCCCC5)CC4)CC3)sc2c1`: the Motility in the assay on Schistosoma mansoni [1] is recorded as 117; in the assay on Schistosoma mansoni [2] it was 97.4; in the assay on Schistosoma mansoni [5], 125.2. Also, the Toxicity stood at 0 in the assay with Schistosoma mansoni [3]; 0 in the assay on Schistosoma mansoni [4]; 4 in the assay with Schistosoma mansoni [6]; 4 in the assay with Schistosoma mansoni [7]; 4 in the assay on Schistosoma mansoni [8]; 0 in the assay with Schistosoma mansoni [9].
Regarding `CN(C)CCNc1cc(-c2ccccc2)nc2ccccc12`, the Motility result was “No effect” in the assay with Schistosoma mansoni [1], 151.9 in the assay on Schistosoma mansoni [2] and 68.3 in the assay with Schistosoma mansoni [5]. The Toxicity in the assay on Schistosoma mansoni [3] turned out to be 0; with Schistosoma mansoni [4], 0; in the assay with Schistosoma mansoni [6], 2; in the assay with Schistosoma mansoni [7], 1; in the assay on Schistosoma mansoni [8] it was 2; with Schistosoma mansoni [9], 1.
For the compound `COc1ccc(Nc2nc(NCc3ccccc3)c3ccccc3n2)cc1`, the Motility entry in the assay on Schistosoma mansoni [1] is “No effect”; in the assay with Schistosoma mansoni [2], 100; in the assay with Schistosoma mansoni [5] it was 105.7. The Toxicity came to 0 with Schistosoma mansoni [3]; 0 in the assay on Schistosoma mansoni [4]; 2 with Schistosoma mansoni [6]; 4 with Schistosoma mansoni [7]; 4 with Schistosoma mansoni [8]; 0 in the assay on Schistosoma mansoni [9].
Take `O=C(Nc1ccc(F)c(Cl)c1)Nc1ccc(Cl)c(Cl)c1`: the Motility came to 2.6 in the assay on Schistosoma mansoni [1], 3.2 in the assay on Schistosoma mansoni [2] and 3.2 in the assay with Schistosoma mansoni [5]. Also, the Toxicity with Schistosoma mansoni [3] is recorded as 4; in the assay on Schistosoma mansoni [4] it was 4; in the assay on Schistosoma mansoni [6], 3; in the assay with Schistosoma mansoni [7], 4; in the assay on Schistosoma mansoni [8] it was 3; in the assay with Schistosoma mansoni [9] it was 2.
As for `CCCCc1ccc(NS(=O)(=O)c2cc3c4c(c2)CCN4C(=O)CC3)cc1`, the Motility is reported as 80.4 in the assay with Schistosoma mansoni [1], 109.4 in the assay with Schistosoma mansoni [2] and 170.6 in the assay with Schistosoma mansoni [5]. Further, the Toxicity with Schistosoma mansoni [3] was 0; with Schistosoma mansoni [4] it was 0; in the assay on Schistosoma mansoni [6], 2; in the assay on Schistosoma mansoni [7], 0; in the assay on Schistosoma mansoni [8], 0; with Schistosoma mansoni [9] it was 0.
Take `COc1ccc(-c2nc3cc(Cc4ccc5[nH]c(-c6ccc(OC)cc6)nc5c4)ccc3[nH]2)cc1`: the Motility with Schistosoma mansoni [1] was 12.4; with Schistosoma mansoni [2] it was 17.2; in the assay on Schistosoma mansoni [5], 24.7. Also, the Toxicity in the assay on Schistosoma mansoni [3] is 3; in the assay with Schistosoma mansoni [4], 4; with Schistosoma mansoni [6], 3; in the assay on Schistosoma mansoni [7], 4; in the assay with Schistosoma mansoni [8] it was 4; with Schistosoma mansoni [9] it was 3.
Take `CNCCCNc1ccnc2cc(Cl)ccc12`: the Motility result in the assay on Schistosoma mansoni [1] is “No effect”; in the assay on Schistosoma mansoni [2] it was 113.2; with Schistosoma mansoni [5] it was 116.2. In addition, the Toxicity with Schistosoma mansoni [3] was 0; in the assay with Schistosoma mansoni [4] it was 0; in the assay on Schistosoma mansoni [6], 2; with Schistosoma mansoni [7], 2; in the assay on Schistosoma mansoni [8] it was 2; in the assay on Schistosoma mansoni [9], 0.
For the compound `O=C(O)C(=O)O.Oc1ccc(Br)cc1CN1CCN(Cc2cccc(F)c2)CC1`, the Motility result in the assay with Schistosoma mansoni [1] is recorded as “Overactive”; with Schistosoma mansoni [2], 233; in the assay with Schistosoma mansoni [5], 202.5. The Toxicity in the assay with Schistosoma mansoni [3], with Schistosoma mansoni [4], in the assay on Schistosoma mansoni [6], in the assay with Schistosoma mansoni [7], in the assay on Schistosoma mansoni [8] and in the assay with Schistosoma mansoni [9] was 1 in each case.
Regarding `Oc1c(CN2CCN(c3ccccc3F)CC2)cc(Br)c2cccnc12`, the Motility with Schistosoma mansoni [1] is given as 54.8; in the assay with Schistosoma mansoni [2], 231; with Schistosoma mansoni [5] it was 54.2. The Toxicity with Schistosoma mansoni [3] was determined as 4; in the assay with Schistosoma mansoni [4], 4; in the assay with Schistosoma mansoni [6] it was 0; with Schistosoma mansoni [7] it was 4; with Schistosoma mansoni [8] it was 4; in the assay with Schistosoma mansoni [9] it was 3.
Turning to `O=C(Nc1cccc(C(F)(F)F)c1)c1cc(Cl)ccc1O`, the Motility in the assay on Schistosoma mansoni [1] is listed as 0.7; with Schistosoma mansoni [2], 0.5; with Schistosoma mansoni [5] it was 0.4. Moreover, the Toxicity in the assay on Schistosoma mansoni [3], in the assay on Schistosoma mansoni [4], in the assay with Schistosoma mansoni [6], in the assay on Schistosoma mansoni [7], in the assay with Schistosoma mansoni [8] and with Schistosoma mansoni [9] was 4 in each case.
With `CC(C)(C)c1ccc(C(=O)Nc2nc3ccccc3s2)cc1`, the values for the Motility with Schistosoma mansoni [1], with Schistosoma mansoni [2] and in the assay with Schistosoma mansoni [5] were 118, 58.5 and 113.8, respectively. In addition, the Toxicity in the assay on Schistosoma mansoni [3] came to 0; with Schistosoma mansoni [4], 0; with Schistosoma mansoni [6], 2; in the assay on Schistosoma mansoni [7] it was 0; in the assay with Schistosoma mansoni [8], 0; with Schistosoma mansoni [9], 0.
`Br.CCN(CC)S(=O)(=O)c1ccc(-c2csc(Nc3ccc(C)c(C)c3)n2)cc1`: the Motility was 2.5 with Schistosoma mansoni [1], 21.8 in the assay on Schistosoma mansoni [2] and 3.9 with Schistosoma mansoni [5]. The Toxicity in the assay with Schistosoma mansoni [3] is reported as 2; with Schistosoma mansoni [4], 4; in the assay with Schistosoma mansoni [6], 2; with Schistosoma mansoni [7] it was 2; with Schistosoma mansoni [8], 2; with Schistosoma mansoni [9], 2.
With `CC1CCN(Cc2ccc(NC(=O)c3cc4ccc5cccnc5c4[nH]3)cc2)CC1`, the Motility turned out to be 110 in the assay with Schistosoma mansoni [1], 138 in the assay on Schistosoma mansoni [2] and 97.2 with Schistosoma mansoni [5]. For the same compound, the Toxicity is reported as 0 in the assay with Schistosoma mansoni [3]; 0 in the assay with Schistosoma mansoni [4]; 0 with Schistosoma mansoni [6]; 4 in the assay on Schistosoma mansoni [7]; 4 in the assay on Schistosoma mansoni [8]; 0 in the assay on Schistosoma mansoni [9].
With `O=C(NC(c1ccccc1)c1ccc2cccnc2c1O)c1ccccc1` (centres undefined), the Motility result in the assay on Schistosoma mansoni [1] was “Slow, on sides, dark, tegument damage”; in the assay on Schistosoma mansoni [2], 74; in the assay with Schistosoma mansoni [5] it was 16.1. For the same compound, the Toxicity with Schistosoma mansoni [3] was 3; in the assay on Schistosoma mansoni [4], 4; with Schistosoma mansoni [6], 0; with Schistosoma mansoni [7], 4; with Schistosoma mansoni [8], 3; with Schistosoma mansoni [9] it was 0.
`COc1cccc(O)c1CN1CCC2(CCCN(Cc3ccc(F)cc3)C2)C1` (centres undefined): the Motility in the assay with Schistosoma mansoni [1] was 92.4; with Schistosoma mansoni [2] it was 168.1; in the assay with Schistosoma mansoni [5] it was 133.2. Moreover, the Toxicity in the assay on Schistosoma mansoni [3] came to 0; in the assay on Schistosoma mansoni [4], 0; in the assay with Schistosoma mansoni [6], 3; in the assay with Schistosoma mansoni [7] it was 3; in the assay on Schistosoma mansoni [8] it was 2; with Schistosoma mansoni [9], 0.

These data come from ChEMBL document CHEMBL2363022, “Malaria Box Schistosomiasis Screening Data” (2013).
